Experimental data from PubChem BioAssay (NCI).
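How tested: cells in 96-well plates exposed to compound for 48 hours at five concentrations. GI50: concentration for 50% inhibition of growth. TGI marks complete inhibition of growth.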

Columns and labels:
Test in all cases: NCI tumour cell line growth inhibition, 48 h
A549 NSCLC = test system: A549 NSCLC
IGROV1 ovarian = test system: IGROV1 ovarian
NCI-H522 lung = test system: NCI-H522 lung
OVCAR-8 ovarian = test system: OVCAR-8 ovarian
SK-MEL-28 melanoma = test system: SK-MEL-28 melanoma
SK-MEL-5 melanoma = test system: SK-MEL-5 melanoma
SR leukemia = test system: SR leukemia
MALME-3M melanoma = test system: MALME-3M melanoma

Structure (SMILES)	GI50 (A549 NSCLC) [µM]	TGI (A549 NSCLC) [µM]	GI50 (IGROV1 ovarian) [µM]	TGI (IGROV1 ovarian) [µM]	GI50 (NCI-H522 lung) [µM]	TGI (NCI-H522 lung) [µM]	GI50 (OVCAR-8 ovarian) [µM]	TGI (OVCAR-8 ovarian) [µM]	GI50 (SK-MEL-28 melanoma) [µM]	TGI (SK-MEL-28 melanoma) [µM]	GI50 (SK-MEL-5 melanoma) [µM]	TGI (SK-MEL-5 melanoma) [µM]	GI50 (SR leukemia) [µM]	TGI (SR leukemia) [µM]	GI50 (MALME-3M melanoma) [µM]	TGI (MALME-3M melanoma) [µM]
C=CC[P+](c1ccccc1)(c1ccccc1)c1ccccc1	4.54	> 100	9.74	> 100	1.99	20.8	3.25	> 100	11.3	> 100	1.6	5.27	1.45	> 100	–	–
O=C(Nc1ccc(Cl)cc1F)c1cc(I)ccc1O	2.88	> 100	1.51	50.4	1.14	10.5	2.02	9.96	0.487	3.38	1.12	2.53	1.5	> 100	0.608	3.87
COc1cnc2c(c1)C(=O)c1c-2n(CCCN2CCC(O)CC2)c(=O)c2cc(F)ccc12	0.0899	0.32	0.301	2.24	0.0584	0.479	0.173	1.16	1.39	9.8	0.201	0.628	0.0806	1.19	0.298	1.2
O=C(Nc1cccc(Oc2nnc(Cl)c3ccccc23)c1)Nc1ccc(Cl)c(C(F)(F)F)c1	1.1	8.3	1.04	5.85	0.499	3.46	1.3	9.5	0.933	3.54	0.985	3.25	0.321	1.42	0.968	4
O=C(CSC(c1ccccc1)c1ccccc1)N/N=C/c1cccc(Cl)c1	15.1	40.1	15.2	28.8	10.1	23.7	17.6	39.6	–	–	11.4	23.7	17.7	38.3	13	26.1
Oc1c(CN2CCCC2)cc(COCc2ccc(Br)cc2)c2cccnc12	0.914	9.89	0.793	5.2	0.297	1.17	0.398	1.94	1.16	6.31	0.329	1.3	0.365	2.23	1.44	5.18
O=[N+]([O-])c1ccc2c(N3CCC(CCCC4CCN(c5ncnc6cc([N+](=O)[O-])ccc56)CC4)CC3)ncnc2c1	38.1	> 100	> 62.8	> 100	> 45.9	> 100	1.62	> 100	> 44.7	> 100	0.156	11.8	2.5	> 100	> 59.7	> 92.1
C=CC(C=O)C1(O)CCOC(=O)/C1=C\N (configuration not stated)	> 100	> 100	> 100	> 100	> 100	> 100	> 100	> 100	> 100	> 100	62.4	> 100	30.7	> 100	> 100	> 100
CNC(=O)c1ccc2cc(C3(O)CCn4cncc43)ccc2c1 (configuration not stated)	> 100	> 100	> 100	> 100	> 100	> 100	> 100	> 100	> 100	> 100	> 100	> 100	> 100	> 100	> 100	> 100
COc1ccc(-c2nn(-c3cccc(NC(=O)c4ccc5c(c4)OCCO5)c3)cc2-c2ccncc2)cc1Cl	2.98	77.5	5.86	57.2	0.454	2.59	2.47	> 100	1.9	11.6	0.968	3.3	1.1	5.66	0.833	6.72
CCN1C(=O)NC(=O)C(C)(N2C(=O)c3c(F)c(F)c(F)c(F)c3C2=O)C1=O (configuration not stated)	3.69	18.3	1.9	4.92	1.66	3.97	3.55	22.6	2.25	5.82	4.92	13.7	0.444	2.22	2.06	5.48
